Data reported in paper PMC7901654, “Bioisosteric Discovery of NPA101.3, a Second-Generation RET/VEGFR2 Inhibitor Optimized for Single-Agent Polypharmacology” (Journal of Medicinal Chemistry, 2020).

Key:
Experiment in all cases: KinomeScan panel screen
Format in all cases: binding
[1] = target: T1, PAK1 (Homo sapiens, UniProt Q13153); conditions: PAK1, 100 nM; read-out: Percent Control
T1 construct: purchased DiscoveRx KINOMEscan (TRKA and CSF1R IC50 enzymes from Invitrogen)
Method: (§1) In addition, NPA101.3, at a concentration of 100 nM, was subjected to a kinome scan against a 96-kinase panel representing major kinome clusters (Table S2). The compound featured good selectivity, displaying strong binding activity (>90% bound) for only seven additional kinases [CSF1R (colony stimulating factor 1 receptor), FRK (fyn-related Src family tyrosine kinase), HCK (HCK proto-oncogene, Src family tyrosine kinase), LYN (lyn proto-oncogene, Src family tyrosine kinase), MKNK2 (MAPK-interacting serine/threonine kinase 2), TRKA (neurotrophic receptor tyrosine kinase 1), and TRKC (neurotrophic receptor tyrosine kinase 3)] and weak binding (>10–35% bound) for six other kinases (Table S2 and Figure S2). It is important to note that the measurement of binding affinity, which is based on control ligand displacement (Kd), is more sensitive than the in vitro kinase assay. Among the seven kinases with >90% binding, TRKA and CSF1R were selected for an in vitro kinase assay.
(§2) Supplementary Table S2: NPA101.3 KinomeScan Panel screen.
(§3) NPA101.3 was screened at a single concentration of 100 nM. Hits values lower than
(§4) 10% of control were considered strongly positive.
(§5) DiscoveRx Gene Entrez Gene Percent Compound
(§6) Symbol Symbol Control Concentration

[2] = target: T2, PRKD2 (Homo sapiens, UniProt Q9BZL6); conditions: PRKD2, 100 nM; read-out: Percent Control
T2 construct: purchased DiscoveRx KINOMEscan (TRKA and CSF1R IC50 enzymes from Invitrogen)
Method: as §1, §2, §3, §4, §5, §6

[3] = target: T3, TSSK1B (Homo sapiens, UniProt Q9BXA7); conditions: 100 nM, read-out: Percent Control
T3 construct: purchased DiscoverX (outsourced KINOMEscan)
Method: as §1, §2, §3, §4, §5, §6

[4] = target: T4, CDK5 (Homo sapiens, UniProt Q00535); conditions: CDK5, 100 nM; read-out: Percent Control
T4 construct: purchased DiscoveRx KINOMEscan (TRKA and CSF1R IC50 enzymes from Invitrogen)
Method: as §1, §2, §3, §4, §5, §6

[5] = target: T5, PIM1 (Homo sapiens, UniProt P11309); conditions: PIM1, 100 nM; read-out: Percent Control
T5 construct: purchased DiscoveRx KINOMEscan (TRKA and CSF1R IC50 enzymes from Invitrogen)
Method: as §1, §2, §3, §4, §5, §6

[6] = target: T6, WNK1 (Homo sapiens, UniProt Q9H4A3); conditions: WNK1, 100 nM; read-out: Percent Control
T6 construct: purchased DiscoverX (outsourced KINOMEscan)
Method: as §1, §2, §3, §4, §5, §6

[7] = target: T7, TIE2 (Homo sapiens, UniProt Q02763); conditions: TIE2, 100 nM; read-out: Percent Control
T7 construct: purchased DiscoveRx KINOMEscan (TRKA and CSF1R IC50 enzymes from Invitrogen)
Method: as §1, §2, §3, §4, §5, §6

[8] = target: T8, MAP4K3 (Homo sapiens, UniProt Q8IVH8); conditions: MAP4K3, 100 nM; read-out: Percent Control
T8 construct: purchased DiscoveRx KINOMEscan (TRKA and CSF1R IC50 enzymes from Invitrogen)
Method: as §1, §2, §3, §4, §5, §6

[9] = target: T9, ALK (Homo sapiens, UniProt Q9UM73); conditions: 100 nM, read-out: Percent Control
T9 construct: purchased DiscoveRx KINOMEscan (TRKA and CSF1R IC50 enzymes from Invitrogen)
Method: as §1, §2, §3, §4, §5, §6

[10] = target: T10, MET (Homo sapiens, UniProt P08581); conditions: 100 nM, read-out: Percent Control
T10 construct: purchased DiscoveRx KINOMEscan (TRKA and CSF1R IC50 enzymes from Invitrogen)
Method: as §1, §2, §3, §4, §5, §6

[11] = target: T11, MYLK4 (Homo sapiens, UniProt Q86YV6); conditions: MYLK4, 100 nM; read-out: Percent Control
T11 construct: purchased DiscoveRx KINOMEscan (TRKA and CSF1R IC50 enzymes from Invitrogen)
Method: as §1, §2, §3, §4, §5, §6

[12] = target: T12, ROCK2 (Homo sapiens, UniProt O75116); conditions: ROCK2, 100 nM; read-out: Percent Control
T12 construct: purchased DiscoveRx KINOMEscan (TRKA and CSF1R IC50 enzymes from Invitrogen)
Method: as §1, §2, §3, §4, §5, §6

[13] = target: T13, FER (Homo sapiens, UniProt P16591); conditions: 100 nM, read-out: Percent Control
T13 construct: purchased DiscoveRx KINOMEscan (TRKA and CSF1R IC50 enzymes from Invitrogen)
Method: as §1, §2, §3, §4, §5, §6

[14] = target: T14, LRRK2 (Homo sapiens, UniProt Q5S007); conditions: LRRK2, 100 nM; read-out: Percent Control
T14 construct: purchased DiscoveRx KINOMEscan (TRKA and CSF1R IC50 enzymes from Invitrogen)
Method: as §1, §2, §3, §4, §5, §6

[15] = target: T15, FAK (Homo sapiens, UniProt Q05397); conditions: 100 nM, read-out: Percent Control
T15 construct: purchased DiscoveRx KINOMEscan (TRKA and CSF1R IC50 enzymes from Invitrogen)
Method: as §1, §2, §3, §4, §5, §6

[16] = target: T16, CHEK2 (Homo sapiens, UniProt O96017); conditions: CHEK2, 100 nM; read-out: Percent Control
T16 construct: purchased DiscoveRx KINOMEscan (TRKA and CSF1R IC50 enzymes from Invitrogen)
Method: as §1, §2, §3, §4, §5, §6

[17] = target: T17, NEK2 (Homo sapiens, UniProt P51955); conditions: NEK2, 100 nM; read-out: Percent Control
T17 construct: purchased DiscoveRx KINOMEscan (TRKA and CSF1R IC50 enzymes from Invitrogen)
Method: as §1, §2, §3, §4, §5, §6

[18] = target: T18, ERK1 (Homo sapiens, UniProt P27361); conditions: ERK1, 100 nM; read-out: Percent Control
T18 construct: purchased DiscoveRx KINOMEscan (TRKA and CSF1R IC50 enzymes from Invitrogen)
Method: as §1, §2, §3, §4, §5, §6

[19] = target: T19, ULK2 (Homo sapiens, UniProt Q8IYT8); conditions: ULK2, 100 nM; read-out: Percent Control
T19 construct: purchased DiscoverX (outsourced KINOMEscan)
Method: as §1, §2, §3, §4, §5, §6

[20] = target: T20, PIM2 (Homo sapiens, UniProt Q9P1W9); conditions: PIM2, 100 nM; read-out: Percent Control
T20 construct: purchased DiscoveRx KINOMEscan (TRKA and CSF1R IC50 enzymes from Invitrogen)
Method: as §1, §2, §3, §4, §5, §6

[21] = target: T21, CAMK1 (Homo sapiens, UniProt Q14012); conditions: CAMK1, 100 nM; read-out: Percent Control
T21 construct: purchased DiscoveRx KINOMEscan (TRKA and CSF1R IC50 enzymes from Invitrogen)
Method: as §1, §2, §3, §4, §5, §6

[22] = target: T22, SYK (Homo sapiens, UniProt P43405); conditions: 100 nM, read-out: Percent Control
T22 construct: purchased DiscoveRx KINOMEscan (TRKA and CSF1R IC50 enzymes from Invitrogen)
Method: as §1, §2, §3, §4, §5, §6

[23] = target: T23, TRKA (Homo sapiens, UniProt P04629); conditions: 100 nM
T23 construct: purchased Invitrogen
Method: as §1, §2, §3, §4, §5, §6

[24] = target: T24, ACVR1 (Homo sapiens, UniProt Q04771); conditions: ACVR1, 100 nM; read-out: Percent Control
T24 construct: purchased DiscoveRx KINOMEscan (TRKA and CSF1R IC50 enzymes from Invitrogen)
Method: as §1, §2, §3, §4, §5, §6

[25] = target: T25, CAMK2A (Homo sapiens, UniProt Q9UQM7); conditions: 100 nM, read-out: Percent Control
T25 construct: purchased DiscoveRx KINOMEscan (TRKA and CSF1R IC50 enzymes from Invitrogen)
Method: as §1, §2, §3, §4, §5, §6

[26] = target: T26, GAK (Homo sapiens, UniProt O14976); conditions: 100 nM, read-out: Percent Control
T26 construct: purchased DiscoveRx KINOMEscan (TRKA and CSF1R IC50 enzymes from Invitrogen)
Method: as §1, §2, §3, §4, §5, §6

[27] = target: T27, INSR (Homo sapiens, UniProt P06213); conditions: 100 nM, read-out: Percent Control
T27 construct: purchased DiscoveRx KINOMEscan (TRKA and CSF1R IC50 enzymes from Invitrogen)
Method: as §1, §2, §3, §4, §5, §6

[28] = target: T28, EPHA1 (Homo sapiens, UniProt P21709); conditions: EPHA1, 100 nM; read-out: Percent Control
T28 construct: purchased DiscoveRx KINOMEscan (TRKA and CSF1R IC50 enzymes from Invitrogen)
Method: as §1, §2, §3, §4, §5, §6

[29] = target: T29, FRK (Homo sapiens, UniProt P42685); conditions: 100 nM
T29 construct: purchased DiscoveRx KINOMEscan (TRKA and CSF1R IC50 enzymes from Invitrogen)
Method: as §1, §2, §3, §4, §5, §6

[30] = target: T30, DYRK1A (Homo sapiens, UniProt Q13627); conditions: 100 nM, read-out: Percent Control
T30 construct: purchased DiscoveRx KINOMEscan (TRKA and CSF1R IC50 enzymes from Invitrogen)
Method: as §1, §2, §3, §4, §5, §6

[31] = target: T31, ITK (Homo sapiens, UniProt Q08881); conditions: 100 nM, read-out: Percent Control
T31 construct: purchased DiscoveRx KINOMEscan (TRKA and CSF1R IC50 enzymes from Invitrogen)
Method: as §1, §2, §3, §4, §5, §6

T29 sequence (P42685 whole entry): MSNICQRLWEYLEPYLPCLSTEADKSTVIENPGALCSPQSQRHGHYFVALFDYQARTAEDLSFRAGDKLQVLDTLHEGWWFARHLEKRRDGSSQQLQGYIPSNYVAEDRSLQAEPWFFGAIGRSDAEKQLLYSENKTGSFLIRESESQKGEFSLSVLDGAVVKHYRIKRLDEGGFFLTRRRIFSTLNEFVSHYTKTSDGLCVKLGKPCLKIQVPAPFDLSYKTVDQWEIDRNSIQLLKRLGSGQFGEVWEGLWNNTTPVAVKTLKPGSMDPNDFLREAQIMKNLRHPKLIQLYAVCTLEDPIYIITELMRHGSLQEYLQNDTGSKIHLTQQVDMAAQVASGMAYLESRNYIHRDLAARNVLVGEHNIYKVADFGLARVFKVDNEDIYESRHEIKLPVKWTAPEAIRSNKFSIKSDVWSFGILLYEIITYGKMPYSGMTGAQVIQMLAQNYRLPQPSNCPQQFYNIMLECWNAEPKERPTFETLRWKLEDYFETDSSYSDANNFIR
T23 sequence (P04629 33-796): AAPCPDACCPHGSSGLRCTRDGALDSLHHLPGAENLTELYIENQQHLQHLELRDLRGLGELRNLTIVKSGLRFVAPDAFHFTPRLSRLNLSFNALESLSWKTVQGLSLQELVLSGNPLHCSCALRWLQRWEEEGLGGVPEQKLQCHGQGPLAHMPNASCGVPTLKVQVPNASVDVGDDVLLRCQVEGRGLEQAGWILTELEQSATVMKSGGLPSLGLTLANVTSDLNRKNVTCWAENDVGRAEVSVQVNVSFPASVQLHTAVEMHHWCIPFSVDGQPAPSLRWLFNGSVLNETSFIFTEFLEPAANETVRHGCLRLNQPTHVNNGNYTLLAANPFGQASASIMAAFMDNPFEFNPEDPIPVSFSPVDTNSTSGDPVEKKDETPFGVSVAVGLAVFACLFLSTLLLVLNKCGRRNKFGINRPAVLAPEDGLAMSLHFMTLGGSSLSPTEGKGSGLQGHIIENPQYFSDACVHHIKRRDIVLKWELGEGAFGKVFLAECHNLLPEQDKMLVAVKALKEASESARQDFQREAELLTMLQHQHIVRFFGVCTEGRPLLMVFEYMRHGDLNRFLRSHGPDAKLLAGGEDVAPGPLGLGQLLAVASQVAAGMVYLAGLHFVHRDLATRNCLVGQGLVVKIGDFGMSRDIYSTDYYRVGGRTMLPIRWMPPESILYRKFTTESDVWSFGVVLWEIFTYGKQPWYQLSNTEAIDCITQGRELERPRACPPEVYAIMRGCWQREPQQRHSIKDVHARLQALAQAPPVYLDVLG
T4 sequence (Q00535 whole entry): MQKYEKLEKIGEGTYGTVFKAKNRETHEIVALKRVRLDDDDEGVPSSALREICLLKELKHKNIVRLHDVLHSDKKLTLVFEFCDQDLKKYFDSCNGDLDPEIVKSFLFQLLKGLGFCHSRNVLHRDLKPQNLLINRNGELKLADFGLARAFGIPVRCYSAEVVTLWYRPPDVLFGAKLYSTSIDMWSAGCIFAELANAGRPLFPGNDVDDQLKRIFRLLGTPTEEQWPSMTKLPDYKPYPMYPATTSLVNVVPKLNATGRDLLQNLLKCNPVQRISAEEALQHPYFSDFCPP
T8 sequence (Q8IVH8 whole entry): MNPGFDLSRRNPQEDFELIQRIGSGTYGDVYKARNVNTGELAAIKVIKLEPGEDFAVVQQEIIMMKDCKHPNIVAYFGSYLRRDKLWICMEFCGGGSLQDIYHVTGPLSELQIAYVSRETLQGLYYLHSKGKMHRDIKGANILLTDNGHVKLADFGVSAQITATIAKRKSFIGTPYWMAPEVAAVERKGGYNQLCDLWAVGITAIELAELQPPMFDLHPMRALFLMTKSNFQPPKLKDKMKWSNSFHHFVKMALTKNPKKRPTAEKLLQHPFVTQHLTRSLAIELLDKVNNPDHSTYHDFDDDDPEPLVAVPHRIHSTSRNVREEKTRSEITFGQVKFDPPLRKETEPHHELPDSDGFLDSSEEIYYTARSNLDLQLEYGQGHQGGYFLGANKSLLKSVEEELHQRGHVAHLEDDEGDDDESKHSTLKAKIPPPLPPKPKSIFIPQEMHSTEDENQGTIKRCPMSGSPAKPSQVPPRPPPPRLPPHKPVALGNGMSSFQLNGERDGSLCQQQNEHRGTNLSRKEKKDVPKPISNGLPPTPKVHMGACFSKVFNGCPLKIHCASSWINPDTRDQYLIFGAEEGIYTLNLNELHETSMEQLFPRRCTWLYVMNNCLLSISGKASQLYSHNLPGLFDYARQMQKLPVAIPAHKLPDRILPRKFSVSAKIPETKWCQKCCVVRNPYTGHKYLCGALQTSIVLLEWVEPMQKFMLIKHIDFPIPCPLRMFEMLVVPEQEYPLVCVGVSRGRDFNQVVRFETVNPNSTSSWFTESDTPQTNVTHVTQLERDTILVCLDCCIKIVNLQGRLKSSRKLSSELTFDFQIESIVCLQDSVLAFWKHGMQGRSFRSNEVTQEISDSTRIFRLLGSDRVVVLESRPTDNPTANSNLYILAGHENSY
T13 sequence (P16591 whole entry): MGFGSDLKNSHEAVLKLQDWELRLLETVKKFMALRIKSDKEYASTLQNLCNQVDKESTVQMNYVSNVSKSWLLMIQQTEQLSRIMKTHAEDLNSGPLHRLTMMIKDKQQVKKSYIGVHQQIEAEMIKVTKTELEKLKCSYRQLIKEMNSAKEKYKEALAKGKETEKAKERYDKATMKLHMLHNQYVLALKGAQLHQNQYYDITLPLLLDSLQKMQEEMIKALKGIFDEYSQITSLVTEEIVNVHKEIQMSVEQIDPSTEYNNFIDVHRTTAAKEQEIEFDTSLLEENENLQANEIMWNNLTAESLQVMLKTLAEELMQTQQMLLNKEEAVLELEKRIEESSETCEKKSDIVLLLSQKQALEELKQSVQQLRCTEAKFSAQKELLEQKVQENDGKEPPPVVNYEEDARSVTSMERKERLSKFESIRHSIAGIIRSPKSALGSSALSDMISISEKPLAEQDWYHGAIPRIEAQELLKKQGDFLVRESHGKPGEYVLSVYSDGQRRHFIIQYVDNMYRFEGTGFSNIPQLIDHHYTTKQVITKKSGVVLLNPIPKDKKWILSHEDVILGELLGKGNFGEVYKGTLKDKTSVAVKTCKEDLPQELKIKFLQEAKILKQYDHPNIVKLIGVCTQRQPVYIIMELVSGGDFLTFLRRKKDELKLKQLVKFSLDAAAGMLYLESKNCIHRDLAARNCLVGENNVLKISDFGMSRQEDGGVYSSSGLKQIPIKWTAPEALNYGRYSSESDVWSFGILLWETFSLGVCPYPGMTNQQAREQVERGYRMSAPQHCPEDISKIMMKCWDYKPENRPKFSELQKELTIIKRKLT
T3 sequence (Q9BXA7 whole entry): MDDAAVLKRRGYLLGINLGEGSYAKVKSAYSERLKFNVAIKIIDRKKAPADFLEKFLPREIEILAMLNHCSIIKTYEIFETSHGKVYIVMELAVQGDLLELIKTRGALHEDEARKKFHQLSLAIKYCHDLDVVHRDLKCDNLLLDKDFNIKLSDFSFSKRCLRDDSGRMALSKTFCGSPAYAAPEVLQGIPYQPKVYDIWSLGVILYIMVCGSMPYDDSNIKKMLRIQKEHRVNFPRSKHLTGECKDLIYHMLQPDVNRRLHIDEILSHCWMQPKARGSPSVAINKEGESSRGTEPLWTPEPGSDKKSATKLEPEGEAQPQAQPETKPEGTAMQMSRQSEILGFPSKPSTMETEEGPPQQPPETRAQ
T16 sequence (O96017 whole entry): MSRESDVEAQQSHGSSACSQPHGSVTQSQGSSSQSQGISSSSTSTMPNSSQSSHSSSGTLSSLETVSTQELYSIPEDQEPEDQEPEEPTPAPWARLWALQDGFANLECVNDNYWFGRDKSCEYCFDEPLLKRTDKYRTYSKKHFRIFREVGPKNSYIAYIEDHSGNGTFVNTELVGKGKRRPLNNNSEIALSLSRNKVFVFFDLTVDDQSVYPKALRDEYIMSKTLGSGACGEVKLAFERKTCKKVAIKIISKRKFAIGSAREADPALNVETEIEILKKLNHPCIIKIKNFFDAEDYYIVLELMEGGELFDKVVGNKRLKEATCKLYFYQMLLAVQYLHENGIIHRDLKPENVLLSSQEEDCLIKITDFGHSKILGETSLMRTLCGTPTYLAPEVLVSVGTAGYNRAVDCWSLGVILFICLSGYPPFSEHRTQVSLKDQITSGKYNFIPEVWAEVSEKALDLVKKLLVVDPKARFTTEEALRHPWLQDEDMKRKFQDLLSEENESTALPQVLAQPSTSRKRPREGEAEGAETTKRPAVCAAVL
T18 sequence (P27361 whole entry): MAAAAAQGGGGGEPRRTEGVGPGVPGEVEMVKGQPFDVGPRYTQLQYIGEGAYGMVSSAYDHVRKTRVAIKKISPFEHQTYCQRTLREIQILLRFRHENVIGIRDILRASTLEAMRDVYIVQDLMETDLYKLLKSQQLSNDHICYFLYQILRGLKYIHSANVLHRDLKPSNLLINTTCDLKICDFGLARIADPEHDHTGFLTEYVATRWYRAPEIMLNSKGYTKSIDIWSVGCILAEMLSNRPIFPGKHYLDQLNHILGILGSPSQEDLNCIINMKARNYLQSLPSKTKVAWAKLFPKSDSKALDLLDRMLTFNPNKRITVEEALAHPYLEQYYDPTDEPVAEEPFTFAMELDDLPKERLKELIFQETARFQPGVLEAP
T17 sequence (P51955 whole entry): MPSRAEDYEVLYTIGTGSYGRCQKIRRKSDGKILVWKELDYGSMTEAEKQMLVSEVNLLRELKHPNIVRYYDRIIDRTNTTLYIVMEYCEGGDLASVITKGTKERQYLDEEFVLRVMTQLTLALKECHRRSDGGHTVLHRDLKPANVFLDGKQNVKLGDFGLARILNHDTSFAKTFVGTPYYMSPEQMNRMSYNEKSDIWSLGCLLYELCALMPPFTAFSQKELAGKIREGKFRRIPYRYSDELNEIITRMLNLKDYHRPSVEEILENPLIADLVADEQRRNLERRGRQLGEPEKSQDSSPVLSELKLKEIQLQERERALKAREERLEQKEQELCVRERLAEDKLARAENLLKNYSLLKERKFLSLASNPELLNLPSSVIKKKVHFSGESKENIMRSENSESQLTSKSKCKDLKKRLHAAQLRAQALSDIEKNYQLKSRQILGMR

Compound: CC(C)(C)c1cc(NC(=O)Cc2ccc(-n3cnc4cc(-c5ccc(S(C)(=O)=O)cc5)ccc43)cc2)no1 [NPA101.3]
- remaining binding at 0.1 µM [1]: 100%
- remaining binding at 0.1 µM [2]: 100%
- remaining binding at 0.1 µM [3]: 96%
- remaining binding at 0.1 µM [4]: 97%
- remaining binding at 0.1 µM [5]: 94%
- remaining binding at 0.1 µM [6]: 93%
- remaining binding at 0.1 µM [7]: 30%
- remaining binding at 0.1 µM [8]: 95%
- remaining binding at 0.1 µM [9]: 93%
- remaining binding at 0.1 µM [10]: 79%
- remaining binding at 0.1 µM [11]: 89%
- remaining binding at 0.1 µM [12]: 100%
- remaining binding at 0.1 µM [13]: 96%
- remaining binding at 0.1 µM [14]: 100%
- remaining binding at 0.1 µM [15]: 86%
- remaining binding at 0.1 µM [16]: 79%
- remaining binding at 0.1 µM [17]: 100%
- remaining binding at 0.1 µM [18]: 100%
- remaining binding at 0.1 µM [19]: 100%
- remaining binding at 0.1 µM [20]: 94%
- remaining binding at 0.1 µM [21]: 95%
- remaining binding at 0.1 µM [22]: 100%
- binding (% bound) [23]: > 90 % bound
- remaining binding at 0.1 µM ([23]; TRKA, read-out: Percent Control): 1.3%
- remaining binding at 0.1 µM [24]: 92%
- remaining binding at 0.1 µM [25]: 98%
- remaining binding at 0.1 µM [26]: 42%
- remaining binding at 0.1 µM [27]: 100%
- remaining binding at 0.1 µM [28]: 39%
- binding (% bound) [29]: > 90 % bound
- remaining binding at 0.1 µM ([29]; FRK, read-out: Percent Control): 1.1%
- remaining binding at 0.1 µM [30]: 95%
- remaining binding at 0.1 µM [31]: 72%
